Test results reported in paper PMC5025758 (Nature Communications, 2016).

Columns and labels:
KasA [1] = target: T1, KasA (Mycobacterium tuberculosis, UniProt P9WQD9); format: cell-based
KasA [2] = target: T1, KasA; format: biochemical
crystal structure = target: the molecule itself; assay: crystal structure

T1 sequence (P9WQD9 whole entry): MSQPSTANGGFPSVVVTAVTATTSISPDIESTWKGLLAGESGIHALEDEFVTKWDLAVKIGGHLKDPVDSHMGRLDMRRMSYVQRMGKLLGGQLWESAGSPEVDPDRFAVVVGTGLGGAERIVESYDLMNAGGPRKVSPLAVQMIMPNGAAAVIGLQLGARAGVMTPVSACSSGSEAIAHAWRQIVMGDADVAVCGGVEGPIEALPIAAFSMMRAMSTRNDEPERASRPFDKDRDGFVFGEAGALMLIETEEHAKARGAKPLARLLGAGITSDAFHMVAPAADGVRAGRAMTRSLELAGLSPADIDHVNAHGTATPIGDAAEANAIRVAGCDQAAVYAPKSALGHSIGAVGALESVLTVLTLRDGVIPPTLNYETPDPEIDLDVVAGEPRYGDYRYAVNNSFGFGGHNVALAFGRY

CCCCS(=O)(=O)Nc1ccc2cnn(CCCN)c2c1 [compound 1, tagged analogue (1)]
bead-immobilized probe captures KasA from M. bovis BCG extract, competed by free (KasA [1]): only three proteins were efficiently competed off the beads by excess GSK3011724A: KasA

CCCCS(=O)(=O)N(C)c1ccc2cnn(C)c2c1 [compound 2, inactive analogue 2]
Kd (KasA [2]): 4.5 µM

B1: β-ketoacyl synthase KasA (Mycobacterium tuberculosis) (enzyme)
chain: SQPSTANGGFPSVVVTAVTATTSISPDIESTWKGLLAGESGIHALEDEFVTKWDLAVKIGGHLKDPVDSHMGRLDMRRMSYVQRMGKLLGGQLWESAGSPEVDPDRFAVVVGTGLGGAERIVESYDLMNAGGPRKVSPLAVQMIMPNGAAAVIGLQLGARAGVMTPVSACSSGSEAIAHAWRQIVMGDADVAVCGGVEGPIEALPIAAFSMMRAMSTRNDEPERASRPFDKDRDGFVFGEAGALMLIETEEHAKARGAKPLARLLGAGITSDAFHMVAPAADGVRAGRAMTRSLELAGLSPADIDHVNAHGTATPIGDAAEANAIRVAGCDQAAVYAPKSALGHSIGAVGALESVLTVLTLRDGVIPPTLNYETPDPEIDLDVVAGEPRYGDYRYAVNNSFGFGGHNVALAFGRY
notes: also called Rv2245
stoichiometry N (crystal structure): 2
